These results are taken from patent US7981922B2, “Angiotensin I-converting enzyme (ACE) inhibitors” (University of Cape Town, priority 2005, dated 2011).

As a reminder, the Ki is the equilibrium dissociation constant of an inhibitor or competing ligand from its target.

In one experiment the target is tACEdelta36NJ (Homo sapiens, UniProt P12821). Put plainly: ACE inhibitory activity, fluorometric determination of His-Leu, tACE. In kind it is biochemical. The settings on record: for C domain-selectivity: C domain (tACE) versus N domain; for Ki: substrate Z-Phe-His-Leu, enzyme + inhibitor 3 hours at ambient temperature, read-out: Ki (tACE) ZPHL. On the procedure: (§1) The ACE inhibitory activity (as tabulated in Table 1) was measured by the fluorometric determination of pthaldialdehyde-derivatised histidylleucine, a product of the enzyme reaction according to the method of Almquist et al.,^12 with some modifications. For tACEdelta36NJ and N-domain inhibition using Z-Phe-His-Leu as substrate: —10 μL of 0.05 mg/mL enzyme+120 μL inhibitor at ambient temperature for 3 hours. Inhibitor concentrations ranged from 2.0 μM to 500 μM. A 3.0 μL aliquot of this was assayed for enzyme activity using 30 μL of 1.0 mM […]. This was incubated (in triplicate) for 30 mins at 37° C. and stopped with 180 μL solution of 0.28N NaOH. To this alkalized mixture 12 μL of o-pthaldialdehyde (150 mM) was added and the mixture incubated for another 10 mins at room temperature. Reactions were stopped by adding 26 μL solution of 3N HCl. Fluorescence was measured at Ex=360 nm; Em=486 nm, 5×5 slit width along with a His-Leu standard calibration curve fluorometer: Varian Cary Eclipse plate reader.
tACEdelta36NJ, sequence (P12821 642-1230 limits assumed): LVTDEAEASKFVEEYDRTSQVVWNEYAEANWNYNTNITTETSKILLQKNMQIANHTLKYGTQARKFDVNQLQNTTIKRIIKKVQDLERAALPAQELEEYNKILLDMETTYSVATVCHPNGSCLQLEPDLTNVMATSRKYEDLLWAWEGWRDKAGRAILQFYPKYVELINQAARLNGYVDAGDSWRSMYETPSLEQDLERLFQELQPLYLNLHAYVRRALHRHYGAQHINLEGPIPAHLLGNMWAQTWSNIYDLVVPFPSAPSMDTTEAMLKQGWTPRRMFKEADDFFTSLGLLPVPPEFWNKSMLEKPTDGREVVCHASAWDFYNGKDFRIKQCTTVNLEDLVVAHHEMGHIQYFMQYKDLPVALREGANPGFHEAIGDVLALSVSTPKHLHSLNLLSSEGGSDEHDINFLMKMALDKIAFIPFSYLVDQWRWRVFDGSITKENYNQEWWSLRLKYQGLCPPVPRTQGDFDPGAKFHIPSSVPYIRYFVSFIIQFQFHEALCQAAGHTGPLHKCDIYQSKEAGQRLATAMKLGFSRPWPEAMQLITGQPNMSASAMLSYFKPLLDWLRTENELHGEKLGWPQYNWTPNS
(§2) All assays included enzyme incubated with buffer in the absence of inhibitor (i.e. 0 μM inhibitor concentration).

The target of another experiment is N-domain of ACE (Homo sapiens, UniProt P12821). Put plainly: ACE inhibitory activity, fluorometric determination of His-Leu, N-domain. Conditions: substrate Z-Phe-His-Leu; no inhibition up to 500 μM; read-out: Ki (N-dom) ZPHL. Type of experiment: biochemical. As to the method:
as §1, §2

In a further experiment the test system is ACE C-domain. Conditions: C-domain versus N-domain of ACE; cited from earlier work.

Where only a bound is given, the exact number is not on record here.

N-domain of ACE, sequence (P12821 40-624 limits assumed): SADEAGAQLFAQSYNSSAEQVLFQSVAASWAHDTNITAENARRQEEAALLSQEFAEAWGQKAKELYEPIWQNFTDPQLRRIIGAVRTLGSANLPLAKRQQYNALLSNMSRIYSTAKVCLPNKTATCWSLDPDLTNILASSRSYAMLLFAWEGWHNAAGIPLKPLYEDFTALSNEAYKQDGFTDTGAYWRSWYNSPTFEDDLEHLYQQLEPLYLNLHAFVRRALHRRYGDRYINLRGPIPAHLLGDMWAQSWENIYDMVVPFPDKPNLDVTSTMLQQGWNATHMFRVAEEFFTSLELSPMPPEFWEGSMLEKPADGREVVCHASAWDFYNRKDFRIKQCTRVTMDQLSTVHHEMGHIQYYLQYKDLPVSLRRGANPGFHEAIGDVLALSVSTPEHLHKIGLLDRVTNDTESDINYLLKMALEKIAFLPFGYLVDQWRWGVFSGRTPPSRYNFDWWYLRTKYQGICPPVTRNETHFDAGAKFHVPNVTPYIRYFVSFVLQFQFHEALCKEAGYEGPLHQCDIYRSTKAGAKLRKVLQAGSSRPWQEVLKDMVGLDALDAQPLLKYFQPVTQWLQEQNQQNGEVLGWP

Regarding `NCCCC[C@H](N[C@H](CCc1ccccc1)C(=O)O)C(=O)N[C@@H](Cc1c[nH]c2ccccc12)C(=O)O` [Compound 6a], on tACEdelta36NJ, the C domain-selectivity is > 72 fold and the Ki stood at 7 µM. Moreover, the Ki on N-domain of ACE is > 500 µM.
For `O=C(N[C@@H](Cc1ccccc1)P(=O)(O)C1CCCC1C(=O)N[C@@H](Cc1c[nH]c2ccccc12)C(=O)O)OCc1ccccc1` (stereo partly shown) [RXP A380], the C-domain selective in the experiment on ACE C-domain is recorded as ~3000 fold.
Regarding `NCCCC[C@H](N[C@@H](CCc1ccccc1)C(=O)O)C(=O)N[C@@H](Cc1c[nH]c2ccccc12)C(=O)O` [Compound 6], at tACEdelta36NJ, the C domain-selectivity is listed as > 19 fold and the Ki came to 26.3 µM. Moreover, on N-domain of ACE, the Ki is > 500 µM.
